The test deals with T1, human SHIP2 (Homo sapiens, UniProt O15357).
T1 construct: full-length human SHIP2 (aa 1–1 258) containing a C-terminal FLAG-tag; FLAG (C); made in house; host or cells: Expi293 cells (pcDNA3.4, transient)
T1 sequence (O15357 1-1258): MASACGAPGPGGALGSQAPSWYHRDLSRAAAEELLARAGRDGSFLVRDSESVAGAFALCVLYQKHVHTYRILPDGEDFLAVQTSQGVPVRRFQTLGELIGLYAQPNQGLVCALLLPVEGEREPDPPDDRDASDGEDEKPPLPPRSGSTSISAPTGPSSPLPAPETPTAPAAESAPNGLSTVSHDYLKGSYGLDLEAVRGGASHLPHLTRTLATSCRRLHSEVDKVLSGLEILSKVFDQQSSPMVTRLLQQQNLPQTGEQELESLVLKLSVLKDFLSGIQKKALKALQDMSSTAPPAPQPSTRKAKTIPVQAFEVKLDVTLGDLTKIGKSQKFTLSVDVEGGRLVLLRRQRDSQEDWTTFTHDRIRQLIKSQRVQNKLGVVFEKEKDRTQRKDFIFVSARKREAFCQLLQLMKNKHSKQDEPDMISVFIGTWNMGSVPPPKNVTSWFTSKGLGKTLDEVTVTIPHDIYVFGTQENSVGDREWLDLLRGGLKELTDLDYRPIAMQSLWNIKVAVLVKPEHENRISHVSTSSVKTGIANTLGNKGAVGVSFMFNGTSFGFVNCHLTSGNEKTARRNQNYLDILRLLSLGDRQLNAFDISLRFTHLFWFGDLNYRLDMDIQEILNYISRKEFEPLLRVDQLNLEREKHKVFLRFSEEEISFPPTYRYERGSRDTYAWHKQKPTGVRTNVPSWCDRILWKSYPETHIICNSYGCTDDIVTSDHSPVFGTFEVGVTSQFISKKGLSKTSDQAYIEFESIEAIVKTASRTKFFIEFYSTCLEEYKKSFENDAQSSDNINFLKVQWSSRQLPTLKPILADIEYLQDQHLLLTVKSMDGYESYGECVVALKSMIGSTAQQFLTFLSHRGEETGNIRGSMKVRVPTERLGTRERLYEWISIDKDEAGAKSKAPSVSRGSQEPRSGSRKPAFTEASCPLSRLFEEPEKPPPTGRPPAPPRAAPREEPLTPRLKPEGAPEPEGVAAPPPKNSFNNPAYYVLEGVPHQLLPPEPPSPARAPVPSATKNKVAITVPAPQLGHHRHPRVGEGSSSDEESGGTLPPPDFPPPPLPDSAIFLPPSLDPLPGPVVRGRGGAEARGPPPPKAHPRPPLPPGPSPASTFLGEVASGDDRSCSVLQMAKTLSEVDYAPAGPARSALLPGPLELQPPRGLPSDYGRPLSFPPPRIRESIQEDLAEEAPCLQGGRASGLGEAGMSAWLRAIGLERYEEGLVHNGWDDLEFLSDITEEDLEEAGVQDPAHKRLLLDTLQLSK
The test can be described thus: Inorganic phosphate detection assay for phosphatase inhibition. As to conditions: 20 µM diC8-PI(3,4,5)P3, 20 min. It counts as biochemical. An excerpt:
The protein purification is described in detail elsewhere. Briefly, full-length human INPP5K (amino acids 1–448, UniProt ID: Q9BT40), rat INPP5K (aa 1–446, UniProt ID: Q9R0B6), mouse INPP5K (aa 1–468, UniProt ID: Q8C5L6), hamster INPP5K (aa 1–453, UniProt ID: G3HTF6), guinea pig INPP5K (aa 1–473, UniProt ID: H0V8T7) containing an N-terminal FLAG-tag, full-length human SHIP2 (aa 1–1 258) containing a C-terminal FLAG-tag, and full-length human PIPP (amino acids 1–1 006) containing an N-terminal His8-tag were all cloned into the pcDNA3.4 expression vector and transiently expressed in Expi293 cells (Thermo Fisher Scientific). The PH domain of human TAPP1 (amino acids 180–404) containing an N-terminal GST-tag was expressed in a pGEX6P1 expression vector (GE Healthcare) in E. coli strain BL21 ((Merck KGaA, Darmstadt, Germany)), following IPTG induction at 37 °C for 5 h. All the FLAG-tagged INPP5Ks and hSHIP2 were purified using affinity columns containing DDDDK-tagged protein purification gel (MBL, Medical & Biological Laboratories Co., Ltd., Tokyo, Japan), followed by size-exclusion chromatography with Superdex 200 columns (GE Healthcare). His8-tagged hPIPP was purified using Ni–NTA Superflow (Qiagen) and Superdex 200 columns. The GST-tagged hTAPP1 domain was purified using a Glutathione Sepharose 4B (GE Healthcare) and Superdex 200 columns. The purity of the protein obtained was evaluated using SDS-PAGE.
The release of inorganic phosphate was measured using a PiPer Phosphate Assay Kit (Thermo Fisher Scientific), according to the manufacturer’s instructions, but with some modifications. Enzyme reactions were performed in a final volume of 10 µL per well in a 384-well nonbinding black plates (Greiner Bio-One International, GmbH, Kremsmünster, Austria). The reaction mixtures containing 20 µM diC8-PI(3,4,5)P₃ and each enzyme (human INPP5K, mouse INPP5K, rat INPP5K, hamster INPP5K, guinea pig INPP5K, human SHIP2, or human PIPP) in reaction buffer (50 mM Tris–HCl pH 7.0, 150 mM NaCl, 7.5 mM MgCl₂, 0.03% Igepal CA-630, 0.03% gelatin), with or without various concentrations of inhibitor, were incubated for 20 min at room temperature. The reactions were then stopped and detection reactions were initiated by adding 5 µL of detection mix 1 (60 mM EDTA, 12 U/mL maltose phosphorylase, and 0.6 mM maltose in 100 mM Tris–HCl pH 8.0). After incubation for 60 min at room temperature, 5 µL of detection mix 2 (8 U/mL glucose oxidase, 0.8 U/mL HRP, and 100 µM Amplex Red in 100 mM Tris–HCl pH 8.0) was added, and the mixture was incubated for a further 30 min at room temperature in the dark. The fluorescence generated was measured using an Envision plate reader at 531/590 nm (excitation/emission), and the percentage inhibition was calculated as described above.

The structures appear in SMILES notation.

Broadly, the IC50 is the concentration that inhibits the measured activity by half. A high value points to a need for much substance.

As for `CC(C)c1sc(NC(=O)c2ccccc2)c(C(=O)O)c1-c1ccccc1` [CPD-1], the IC50 was over 100 µM.

The values are drawn from publication PMC13047053, “Crystal structure of human INPP5K with an allosteric inhibitor reveals the structural basis for species specific potency” (Scientific Reports, 2026).
